Test results published in paper PMC6072256 (ACS Omega, 2018).

Biological target: chymotrypsin (Bos taurus, UniProt P00766)
Assay: chymotrypsin inhibition assay
Assay type: biochemical
Conditions: protease inhibition test; statement of the abstract

streptopeptolin [compound 1]
inhibitory activity against chymotrypsin (in words): showed inhibitory activity
